These are literature values, as cited in US20050181032A1, “Metastable pharmaceutical compositions” (Acrux DDS Pty Ltd., priority 2002, published 2005).

As usually defined, the LogP is a log measure of how a compound divides between an organic and an aqueous phase.

Consider `C#C[C@]1(O)CC[C@H]2[C@@H]3CCc4cc(O)ccc4[C@H]3CC[C@@]21C` [EE2, Ethinyl Estradiol], for which the LogP is listed as 3.91.
